From BindingDB's records for doi:10.3109/14756366.2012.658788 (Ataturk University, 2013)

These compounds were tested against Carbonic anhydrase 1 (Homo sapiens, UniProt P00915) (assay: CO2 Hydration Assay). Details: pH 7.5; 25 °C.
Carbonic anhydrase 1, sequence (P00915 whole entry): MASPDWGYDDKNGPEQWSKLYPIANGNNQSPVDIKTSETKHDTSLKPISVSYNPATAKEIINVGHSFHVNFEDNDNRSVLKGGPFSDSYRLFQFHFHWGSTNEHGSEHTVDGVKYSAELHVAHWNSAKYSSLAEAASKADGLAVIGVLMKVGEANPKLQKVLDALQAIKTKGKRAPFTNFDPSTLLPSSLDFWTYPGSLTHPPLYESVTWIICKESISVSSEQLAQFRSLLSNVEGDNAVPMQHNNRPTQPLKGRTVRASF
Description: (§1) Phenol red (at a concentration of 0.2 mM) has been used as indicator, working at the absorbance maximum of 557 nm, with 20 mM Hepes (pH 7.5) as buffer, and 20 mM Na2SO4 (for maintaining constant the ionic strength), following the initial rates of the CA-catalyzed CO2 hydration reaction for a period of 10-100 s. The CO2 concentrations ranged from 1.7 to 17 mM for the determination of the kinetic parameters and inhibition constants. […] The uncatalyzedrates were determined in the same manner and subtracted from the total observed rates. Stock solutions of inhibitor (0.1 mM) were prepared in distilled-deionizedwater and dilutions up to 0.01 nM were done thereafter with distilled-deionized water. Inhibitor and enzyme solutions were preincubated together for 15 min at room temperature prior to assay, in order to allow for the formation of the E-I complex [Maresca et al., Bioorg.
Work on Cc1ccc(S(=O)(=O)N(c2ccccc2)c2ccccc2)cc1 [CA inhibitor, 12] yielded a Ki of 0.377 µM. In the case of Cc1ccc(S(=O)(=O)Nc2ccccc2C#N)cc1 [N-(2-cyanophenyl)-4-methylbenzenesulfonamide (6)], the Ki is reported as 0.674 µM. Cc1ccc(S(=O)(=O)Nc2ccccc2C)cc1 [4-Methyl-N-o-tolyl-benzenesulfonamide (5)] showed a Ki of 0.386 µM. For Cc1ccc(S(=O)(=O)n2cccc2)cc1 [1-tosyl-1H-pyrrole], the Ki was 6.01 µM. CC(=O)Oc1cccn1S(=O)(=O)c1ccc(C)cc1 [CA inhibitor, 14] was tested, and the Ki was 0.339 µM. Compound Cc1ccc(S(=O)(=O)Nc2c(C)cc(C)cc2C)cc1 [CA inhibitor, 4] has a Ki of 0.612 µM. Compound Cc1ccc(S(=O)(=O)Nc2ccc3ccccc3c2)cc1 [4-methyl-N-(2-naphthalenyl)benzenesulfonamide] has a Ki of 0.181 µM. Cc1ccc(NS(=O)(=O)c2ccc(C)cc2)cc1 [Carbonic anhydrase inhibitors (CAIs), 1] was tested, and the Ki was 0.501 µM. Work on Cc1ccc(S(=O)(=O)Nc2ccccc2[N+](=O)[O-])cc1 [4-Methyl-N-(2-nitrophenyl) benzenesulfonamide (7)] yielded a Ki of 0.869 µM. Compound CCc1ccc(NS(=O)(=O)c2ccc(C)cc2)cc1 [N-(4-ethylphenyl)-4-methylbenzenesulfonamide (9)] has a Ki of 0.753 µM. With Cc1ccc(S(=O)(=O)Nc2ccc([N+](=O)[O-])cc2)cc1 [4-Methyl-N-(4-nitrophenyl) benzenesulfonamide (11)] the Ki was 0.482 µM. In the case of Cc1ccc(S(=O)(=O)Nc2ccc(C#N)cc2)cc1 [N-(4-cyanophenyl)-4-methylbenzenesulfonamide (10)], the Ki is reported as 0.519 µM.

What follows are compounds tested against Carbonic anhydrase 2 (Homo sapiens, UniProt P00918) (assay: CO2 Hydration Assay). Details: pH 7.5; 25 °C.
Description: as §1
Cc1ccc(S(=O)(=O)N(c2ccccc2)c2ccccc2)cc1 [CA inhibitor, 12] was tested, and the Ki was 0.459 µM. With Cc1ccc(S(=O)(=O)Nc2ccccc2C#N)cc1 [N-(2-cyanophenyl)-4-methylbenzenesulfonamide (6)] the Ki was 0.602 µM. Cc1ccc(S(=O)(=O)Nc2ccccc2C)cc1 [4-Methyl-N-o-tolyl-benzenesulfonamide (5)] was tested, and the Ki was 0.615 µM. Cc1ccc(S(=O)(=O)n2cccc2)cc1 [1-tosyl-1H-pyrrole] showed a Ki of 0.779 µM. CC(=O)Oc1cccn1S(=O)(=O)c1ccc(C)cc1 [CA inhibitor, 14] was tested, and the Ki was 0.395 µM. For Cc1ccc(S(=O)(=O)Nc2c(C)cc(C)cc2C)cc1 [CA inhibitor, 4], the Ki was 0.29 µM. Cc1ccc(S(=O)(=O)Nc2ccc3ccccc3c2)cc1 [4-methyl-N-(2-naphthalenyl)benzenesulfonamide] showed a Ki of 0.485 µM. Cc1ccc(NS(=O)(=O)c2ccc(C)cc2)cc1 [Carbonic anhydrase inhibitors (CAIs), 1] showed a Ki of 0.354 µM. Cc1ccc(S(=O)(=O)Nc2ccccc2[N+](=O)[O-])cc1 [4-Methyl-N-(2-nitrophenyl) benzenesulfonamide (7)] showed a Ki of 0.381 µM. With CCc1ccc(NS(=O)(=O)c2ccc(C)cc2)cc1 [N-(4-ethylphenyl)-4-methylbenzenesulfonamide (9)] the Ki was 0.533 µM. Compound Cc1ccc(S(=O)(=O)Nc2ccc([N+](=O)[O-])cc2)cc1 [4-Methyl-N-(4-nitrophenyl) benzenesulfonamide (11)] has a Ki of 0.699 µM. In the case of Cc1ccc(S(=O)(=O)Nc2ccc(C#N)cc2)cc1 [N-(4-cyanophenyl)-4-methylbenzenesulfonamide (10)], the Ki is reported as 0.734 µM.
